“And” between values parts separate entries of the source, which are not always exact repeats. Equal entries are not always repeated.
Experiments:
[1] = Morphological assessment / tolerability (H&E of kidney, pancreas, tumor)
Experimental: Selected mouse organs (kidney, pancreas and tumor) were dissected from the sacrificed animals and immediately frozen using liquid nitrogen. Frozen tissue samples were sectioned of 7 μm thickness using a cryostat maintained at – 20 °C to – 25 °C and mounted onto microscope glass slides followed by staining with hematoxylin and eosin for microscopic examination using standard protocols (details in Supporting Information).
Frozen tissue samples (kidney, pancreas and tumor) were sectioned at 7 µm thickness using a cryostat
maintained at −20°C to −25°C and mounted onto microscope glass slides. Sections were air-dried at
room temperature for 15 minutes and subsequently fixed in 4% paraformaldehyde for 10 minutes. After
rinsing in phosphate-buffered saline, slides were stained with hematoxylin for 5 minutes, rinsed in
running tap water and differentiated in 1% acid alcohol followed by bluing in ammonia water. Sections
were then counterstained with eosin for 1 minute and briefly washed in 70% ethanol to remove excess
stain. Slides were dehydrated through graded ethanol (70%, 95%, 100%) and mounted with a permanent
mounting medium. Stained sections were examined using a light microscope.

[2] = system: PC-3 tumors; experiment: In vivo combination therapy with everolimus in PC-3 tumor bearing mice; design: species or system mouse; conditions: for Tumor volume, average: 5mg/kg (x3)
Text: Treatment began once tumors reached the same size threshold used in the monotherapy studies. Animals were divided into three groups (n = 4–5 per group) and received one of the following regimens: • 1.
Monitoring procedures matched those used in the monotherapy experiments.
The procedure is detailed in the supplementary material.
initiation of therapy in the combination treatment studies. Three groups of 5 mice per group were
Both monotherapy and combination

CO[C@H]1C[C@@H]2CC[C@@H](C)[C@@](O)(O2)C(=O)C(=O)N2CCCC[C@H]2C(=O)O[C@H]([C@H](C)C[C@@H]2CC[C@@H](OCCO)[C@H](OC)C2)CC(=O)[C@H](C)/C=C(\C)[C@@H](O)[C@@H](OC)C(=O)[C@H](C)C[C@H](C)/C=C/C=C/C=C/1C [Everolimus, everolimus]
Pancreas, microscopic tissue examination ([1]; 5mg/kg (x3)): No obvious lesions
tolerability ([1]; three doses, physical condition and weight): no observable side effects
Median survival ([2]; 5 mg/kg/day for 3 days i.p.): 27.5 days and ~27 days
Tumor volume, average ([2]; day 0): 100.06 mm3
Tumor volume, average ([2]; day 2): 108.59 mm3
Tumor volume, average ([2]; day 4): 107.95 mm3
Tumor volume, average ([2]; day 6): 97.61 mm3
Tumor volume, average ([2]; day 8): 97.18 mm3
Tumor volume, average ([2]; day 10): 104.48 mm3
Tumor volume, average ([2]; day 12): 131.10 mm3
Tumor volume, average ([2]; day 14): 181.07 mm3
Tumor volume, average ([2]; day 16): 193.30 mm3
Tumor volume, average ([2]; day 18): 241.75 mm3
Tumor volume, average ([2]; day 20): 376.61 mm3
Tumor volume, average ([2]; day 22): 630.33 mm3
Tumor volume, average ([2]; day 24): 524.51 mm3
Tumor volume, average ([2]; day 27): 794.32 mm3
Tumor volume, average ([2]; day 29): 970.40 mm3
effect on tumor growth ([2]; everolimus alone, 5 mg/kg/day for 3 days): moderately delayed tumor growth but did not stop it

— article PMC12797171, “Preclinical Evaluation of a ^177Lu-Labeled Gastrin-Releasing Peptide Receptor Antagonist and Prostate Cancer Treatment with Monotherapy and in Combination with Everolimus” (ACS Pharmacology & Translational Science, 2025)
